Data from article PMC2770896, “Inhibition of Neuraminidase Inhibitor-Resistant Influenza Virus by DAS181, a Novel Sialidase Fusion Protein” (PLoS ONE, 2009).
Where two headings read alike, the source gives them in different places.

Columns and labels:
[1] = target: NA enzymatic activity of A/Georgia/20/2006 H274Y (Influenza A virus (H1N1), UniProt B1AGS8); assay: biochemical; format: biochemical
[2] = target: NA enzymatic activity of A/New Jersey/15/2007 (Influenza A virus (H1N1), UniProt D5F1R0, H275Y); format: biochemical, IFV A (H1N1); conditions: for R/S: A/New Jersey/15/2007, NI assay
[3] = target: NA enzymatic activity of A/St.Louis/758/09 (Influenza A virus, UniProt D0FH51, S5N); assay: biochemical; format: biochemical, IFV A (H1N1); conditions: for R/S: NI assay
[4] = system: A/Victoria/3/75 (H3N2) with A28T(HA) and R292K(NA) mutations; conditions: cited from earlier work

| SMILES | R/S [1] | IC50 ([1]; read-out: IC50) [nM] | R/S [2] | IC50 ([2]; A/New Jersey/15/2007 reference virus, mean of triplicate analysis) [nM] | R/S ([3]; A/St.Louis/758/09) | IC50 ([3]; A/St.Louis/758/09, mean of triplicate analysis, read-out: IC50) [nM] | Resistance [4] [fold] | IC50 [1] [nM] | IC50 [3] [nM] |
| --- | --- | --- | --- | --- | --- | --- | --- | --- | --- |
| CCC(CC)O[C@@H]1C=C(C(=O)O)C[C@H](N)[C@H]1NC(C)=O [oseltamivir, oseltamivir carboxylate] | R | 192 | R | 124 | R | 88.4 | 3230 |  |  |
| CC(=O)N[C@H]1[C@H]([C@H](O)[C@H](O)CO)OC(C(=O)O)=C[C@@H]1N=C(N)N [zanamivir] | S |  | S |  | S |  | 60 | 0.57 | 0.34 |
